Assay results from US11072628B2, “Nucleoside analogues for the treatment of parasitic infections” (UNIVERSITEIT GENT, priority 2017, dated 2021).
pEC50: −log10 of the molar value. Where two headings read alike, the source gives them in different places.

Columns and labels:
[1] = tested on: T. b. rhodesiense STIB-900; test: In vitro drug susceptibility, T. b. rhodesiense STIB-900 (resazurin); type: cell-based, Trypanosoma brucei rhodesiense
Protocol: (§1) All trypanosome strains were cultured in the standard HMI-9 medium supplemented with 10% fetal bovine serum (FBS) at 37° C. in a 5% CO2 atmosphere.

T. brucei Squib 427 = test: In vitro drug susceptibility, T. brucei Squib 427 (resazurin); type: cell-based, Trypanosoma brucei brucei
Protocol: as §1

MRC-5 fibroblasts = test: in vitro
Protocol: (§2) Cytotoxicity was assayed against MRC-5 fibroblasts. Results are depicted in Tables 4 and 5.

[2] = tested on: T. cruzi Tulahuen CL2 β galactosidase strain; test: T. cruzi Tulahuen CL2 β galactosidase strain on MRC-5SV2 cells (CPRG); type: cell-based, Trypanosoma cruzi
Protocol: All cultures and assays were conducted at 37° C./5% CO2. […] The results were expressed as % reduction in parasite burdens compared to control wells from which an EC50 was calculated.

[3] = Cytotoxicity against MRC-5 fibroblasts; conditions: human
Protocol: as §2

[4] = Trypanosoma brucei, RHODESIENSE, read-out: T. brucei rhod. EC50
[5] = Trypanosoma brucei, read-out: T. brucei brucei EC50, Table 1, average of 2-4 independent determinations
[6] = MRC-5 fibroblasts, MRC-5 EC50, Table 1, cytotoxicity
[7] = MRC-5 fibroblasts, MRC-5 EC50, Table 2, cytotoxicity
[8] = Trypanosoma cruzi, TULAHUEN, MRC-5 SV2, Table 2, average of 2-3 independent replicates
[9] = Table 4, average of 2-6 independent determinations, read-out: T.b. brucei EC50
[10] = Table 5, average of 2-4 independent replicates
[11] = Trypanosoma brucei, read-out: T.b. brucei EC50, Table 4, average of 2-6 independent determinations
[12] = MRC-5 fibroblasts, MRC-5 EC50, Table 4, cytotoxicity
[13] = MRC-5 fibroblasts, MRC-5 EC50, Table 5, cytotoxicity
[14] = Trypanosoma cruzi, TULAHUEN, MRC-5 SV2, Table 5, average of 2-4 independent replicates
[15] = Trypanosoma brucei, RHODESIENSE, read-out: T.b. rhod. EC50
[16] = Trypanosoma brucei, RHODESIENSE, Table 1, average of 2-4 independent determinations, read-out: T. brucei rhod. EC50
[17] = Trypanosoma brucei, Table 1, average of 2-4 independent determinations, read-out: T. brucei brucei EC50

Row | SMILES | pEC50 [1, 4] | pEC50 (T. brucei Squib 427; [5]) | pEC50 [2, 8] | pEC50 (T. brucei Squib 427; [11]) | pEC50 [3, 12] | pEC50 [3, 13] | pEC50 [2, 14] | pEC50 [1, 15] | further results
1 | Nc1ncnc2c1c(Br)cn2[C@H]1CC[C@@H](CO)O1 [FH10638, 4-amino-5-bromo-N7-(2′,3′-dideoxy-β-D-ribofuranosyl)-pyrrolo[2,3-d]pyrimidine] | – | – | – | – | – | – | – | – | pEC50 ([1]; Table 1, average of 2-4 independent determinations, read-out: T. brucei rhod. EC50): 4.61; pEC50 (T. brucei Squib 427; Table 1, average of 2-4 independent determinations, read-out: T. brucei brucei EC50): 4.24; pEC50 (MRC-5 fibroblasts): 4.78; pEC50 ([2]; Table 2, average of 2-3 independent replicates): 4.36
2 | Nc1ncnc2c1ccn2[C@@H]1O[C@H](CO)C[C@@H]1O [FH10650, 4-amino-N7-(2′-arabino-3′-deoxy-β-D-ribofuranosyl)-pyrrolo[2,3-d]pyrimidine] | 6.22 | 5.18 | < 4.19 | – | – | – | – | – | pEC50 [3, 6]: < 4.19; pEC50 [3, 7]: < 4.19
3 | Nc1ncnc2c1c(-c1ccc3ccccc3n1)cn2[C@@H]1O[C@H](CO)[C@@H](O)[C@H]1O [MS1017] | – | – | – | – | – | – | – | – | pEC50 ([1]; Table 4, average of 2-6 independent determinations, read-out: T.b. rhod. EC50): 5.43; pEC50 (T. brucei Squib 427; [9]): 5.19; pEC50 (MRC-5 fibroblasts): < 4.19; pEC50 [2, 10]: 4.47
4 | CN(C)c1ncnc2c1c(Br)cn2[C@@H]1O[C@H](CO)C[C@H]1O [FH8522, 4-dimethylamino-5-bromo-N7-(3′-deoxy-β-D-ribofuranosyl)-pyrrolo[2,3-d]pyrimidine] | 6.10 | 5.73 | 4.68 | – | – | – | – | – | pEC50 [3, 6]: < 4.19; pEC50 [3, 7]: < 4.19
5 | Nc1ncnc2c1c(-c1cccnc1)cn2[C@@H]1O[C@H](CO)[C@@H](O)[C@H]1O [FH4185, 4-amino-5-(pyrid-3-yl)-N7-(β-D-ribofuranosyl)-pyrrolo[2,3-d]pyrimidine] | – | – | – | < 4.19 | < 4.19 | < 4.19 | 4.81 | – | anti-trypanosomal activity against T. brucei, in words (T. brucei Squib 427): no discernible trypanocidal effects
6 | C=Cc1cn([C@@H]2O[C@H](CO)C[C@H]2O)c2ncnc(N)c12 [FH10659, 4-amino-5-vinyl-N7-(3′-deoxy-β-D-ribfuranosyl)-pyrrolo[2,3-d]pyrimidine] | 8.30 | 7.40 | 5.03 | – | – | – | – | – | –
7 | CCCCOc1ncnc2c1c(Cl)cn2[C@@H]1O[C@H](CO)[C@@H](O)[C@H]1O [FH9530, 4-n-butoxy-5-chloro-N7-(β-D-ribofuranosyl)-pyrrolo[2,3-d]pyrimidine] | – | – | – | 7.15 | 5.88 | 5.88 | 6.35 | 7.40 | –
8 | Nc1ncnc2c1c(-c1cccc(Cl)n1)cn2[C@@H]1O[C@H](CO)[C@@H](O)[C@H]1O [MS1034, 4-amino-5-(6-chloro-pyrid-2-yl)-N7-(β-D-ribofuranosyl)-pyrrolo[2,3-d]pyrimidine] | – | – | – | 5.76 | < 4.19 | < 4.19 | < 4.19 | 6.21 | –
9 | CC(C)(C)[Si](C)(C)O[C@@H]1C[C@@H](CO)O[C@H]1n1cc(Br)c2c(N)ncnc21 [FH9552, 4-amino-5-bromo-N7-(2′-O-t-butyldimethylsilyl-3′-deoxy-β-D-ribofuranosyl)-pyrrolo[2,3-d]pyrimidine] | – | – | – | – | – | – | – | – | pEC50 [1, 16]: 6.57; pEC50 (T. brucei Squib 427; [17]): 6.20; pEC50 [3]: < 4.19
10 | Nc1ncnc2c1c(F)cn2[C@@H]1O[C@H](CO)C[C@H]1O [FH8517, 4-amino-5-fluoro-N7-(3′-deoxy-β-D-ribofuranosyl)-pyrrolo[2,3-d]pyrimidine] | 9.52 | 8.70 | 5.91 | – | – | – | – | – | pEC50 [3, 6]: 5.44; pEC50 [3, 7]: 5.44
11 | O=C(Cn1ccnc1[N+](=O)[O-])NCc1ccccc1 [Benznidazole, reference compound] | – | – | 5.62 | – | – | – | – | – | –
12 | Nc1ncnc2c1c(Cl)cn2[C@@H]1O[C@H](CO)C[C@H]1O [FH8470] | 9.40 | 8.70 | 7.30 | – | – | – | – | – | –
13 | Nc1ncnc2c1c(-c1cnccn1)cn2[C@@H]1O[C@H](CO)[C@@H](O)[C@H]1O [FH3179, 4-amino-5-(pyrazine-2-yl)-N7-(β-D-ribofuranosyl)-pyrrolo[2,3-d]pyrimidine] | – | – | – | 5.71 | 6.26 | 6.26 | 6.07 | – | cytotoxicity, in words (MRC-5 fibroblasts): submicromolar cytotoxicity
14 | Nc1ncnc2c1c(Br)cn2[C@@H]1O[C@H](CO)C[C@H]1O [FH7429_U, 4-amino-5-bromo-N7-(3′-deoxy-β-D-ribofuranosyl)-pyrrolo[2,3-d]pyrimidine] | > 9.30 | 8.70 | 7.70 | – | – | – | – | – | pEC50 [3, 6]: 4.79; pEC50 [3, 7]: 4.79
15 | Nc1ncnc2c1c(Br)cn2[C@@H]1O[C@H](CO)C[C@@H]1O [FH10628, 4-amino-5-bromo-N7-(2′-arabino-3′-deoxy-β-D-ribofuranosyl)-pyrrolo[2,3-d]pyrimidine] | 7.52 | 6.89 | 5.83 | – | – | – | – | – | pEC50 [3, 6]: 4.34; pEC50 [3, 7]: 4.34
16 | Cn1cnc(-c2cn([C@@H]3O[C@H](CO)[C@@H](O)[C@H]3O)c3ncnc(N)c23)c1 [FH3182] | – | – | – | – | – | – | – | – | anti-trypanosomal activity against T. brucei, in words (T. brucei Squib 427): low μM activity; pEC50 (T. brucei Squib 427; [9]): 5.32; pEC50 (MRC-5 fibroblasts): 4.63; pEC50 [2, 10]: 5.08
17 | CC(C)Oc1ncnc2c1c(Cl)cn2[C@@H]1O[C@H](CO)[C@@H](O)[C@H]1O [FH9531, 4-isopropoxy-5-chloro-N7-(β-D-ribfuranosyl)-pyrrolo[2,3-d]pyrimidine] | – | – | – | 7.05 | < 4.19 | < 4.19 | 4.64 | 7.00 | –
18 | COc1ncnc2c1c(Cl)cn2[C@@H]1O[C@H](CO)[C@@H](O)[C@H]1O [FH8446, 4-methoxy-5-chloro-N7-(β-D-ribfuranosyl)-pyrrolo[2,3-d]pyrimidine] | – | – | – | 6.80 | 4.32 | 4.32 | 4.90 | 7.40 | –
19 | CC(C)(C)[Si](C)(C)OC[C@@H]1C[C@@H](O)[C@H](n2cc(Br)c3c(N)ncnc32)O1 [FH8471, 4-Amino-5-Bromo-N7-(3′-Deoxy-5′-O-t-Butyl-Dimethylsilyl)-β-D-Ribofuranosyl-Pyrrolo[2,3-d]pyrimidine] | – | – | – | – | – | – | – | – | pEC50 [1, 16]: 7.10; pEC50 (T. brucei Squib 427; [17]): 5.92; pEC50 [3]: 5.27
20 | Nc1ncnc2c1c(-c1ccc(F)cn1)cn2[C@@H]1O[C@H](CO)[C@@H](O)[C@H]1O [MS1037, 4-amino-5-(5-fluoro-pyrid-2-yl)-N7-(β-D-ribofuranosyl)-pyrrolo[2,3-d]pyrimidine] | – | – | – | 5.32 | < 4.19 | < 4.19 | 4.50 | 5.77 | –
21 | CCCOc1ncnc2c1c(Cl)cn2[C@@H]1O[C@H](CO)[C@@H](O)[C@H]1O [FH9532, 4-n-propoxy-5-chloro-N7-(β-D-ribfuranosyl)-pyrrolo[2,3-d]pyrimidine] | – | – | – | 7.10 | 5.55 | 5.55 | 5.98 | 7.10 | –
22 | COc1ncnc2c1c(Br)cn2[C@@H]1O[C@H](CO)[C@@H](O)[C@H]1O [FH9528, 4-methoxy-5-bromo-(N7-β-D-ribofuranosyl)-pyrrolo[2,3-d]pyrimidine] | – | – | – | 6.72 | < 4.19 | < 4.19 | 4.62 | 7.40 | –
23 | Nc1ncnc2c1c(Br)cn2[C@@H]1O[C@H](CO)[C@@H](O)[C@H]1O [TH1003] | – | – | – | – | – | – | 6.41 | – | pEC50 ([1]; Trypanosoma brucei, RHODESIENSE, Table 4, average of 2-6 independent determinations, read-out: T.b. rhod. EC50): 6.92; pEC50 (T. brucei Squib 427; Trypanosoma brucei, Table 4, average of 2-6 independent determinations, read-out: T.b. brucei EC50): 5.91; pEC50 ([3]; MRC-5 EC50): 4.48
24 | Nc1ccnc2c1c(I)cn2[C@@H]1O[C@H](CO)[C@@H](O)[C@H]1O [FH5319, 3-iodo-4-amino-N1-(β-D-ribofuranosyl)-pyrrolo[2,3-b]pyridine] | – | – | – | 6.40 | < 4.19 | < 4.19 | 7.40 | < 4.19 | –
25 | Nc1ncnc2c1c(-c1ccc(Cl)cc1Cl)cn2[C@@H]1O[C@H](CO)C[C@H]1O [FH9581, 4-amino-5-(2,4-dichlorophenyl)-N7-(3′-deoxy-β-D-ribofuranosyl)-pyrrolo[2,3-d]pyrimidine] | 5.14 | 4.71 | 6.30 | – | – | – | – | – | pEC50 [3, 6]: 4.71; pEC50 [3, 7]: 4.71
26 | CCOc1ncnc2c1c(Cl)cn2[C@@H]1O[C@H](CO)[C@@H](O)[C@H]1O [FH9529, 4-ethoxy-5-chloro-N7-(β-D-ribfuranosyl)-pyrrolo[2,3-d]pyrimidine] | – | – | – | 6.92 | 4.31 | 4.31 | 5.20 | 7.22 | –
27 | Cc1ccc(-c2cn([C@@H]3O[C@H](CO)C[C@H]3O)c3ncnc(N)c23)cc1 [FH8481, 4-amino-5-(4-methylphenyl)-N7-(3′-deoxy-β-D-ribofuranosyl)-pyrrolo[2,3-d]pyrimidine] | 4.74 | 4.48 | 6.34 | – | – | – | – | – | pEC50 [3, 6]: 4.68; pEC50 [3, 7]: 4.68
28 | Nc1ncnc2c1c(I)cn2[C@@H]1O[C@H](CO)C[C@H]1O [FH8496, 4-amino-5-iodo-N7-(3′-deoxy-β-D-ribfuranosyl)-pyrrolo[2,3-d]pyrimidine] | 9.00 | 8.00 | 7.52 | – | – | – | – | – | –
